Measurements taken from patent publication US7138122B2, “Therapeutic systems” (Enzacta R & D Limited, priority 1997, dated 2006).

Key:
[1] = system: NQO2 expressing V79 cells; test: Cytotoxicity of CB 1954 with NRH in NQO2-transfected V79 cells; assay type: cell-based, Chinese hamster; conditions: 100 μM NRH added, 72 hours
Method: Transfection quality H6 DNA was prepared using the QIAGEN endotoxin-free maxiprep kit. Chinese hamster lung embryo fibroblasts (V79) were transfected with the purified H6 using DOTAP liposomal reagent according to the manufacturer's instructions (Boehringer Mannheim). Two days after transfection puromycin-resistant clones were selected in DMEM/10% FCS containing 10 μg/ml puromycin (Sigma) and grown on to establish cell lines designated V79TM1, 5, 3, 7, 9, 11 and 13 respectively and maintained in selective medium.

NQO2 = biological target: T1, NQO2 (Homo sapiens, UniProt P16083); test: Co-substrate activity with NQO2 for reduction of CB 1954 (HPLC); assay type: biochemical; parameters: restriction site were added to the 5′ and 3′-ends of the full-length NQO2 cDNA; made in house; host or cells: E. coli (expression vector pKK233-2, plasmid pKK-hNQO2)
T1 sequence (P16083 1-231): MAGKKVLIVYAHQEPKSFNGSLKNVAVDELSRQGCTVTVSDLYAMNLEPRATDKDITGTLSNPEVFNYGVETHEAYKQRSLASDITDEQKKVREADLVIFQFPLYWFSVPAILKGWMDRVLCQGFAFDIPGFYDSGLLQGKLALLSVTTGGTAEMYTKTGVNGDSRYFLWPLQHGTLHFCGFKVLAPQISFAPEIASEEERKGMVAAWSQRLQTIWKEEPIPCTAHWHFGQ
Method: The effect of various co-substrates on CB 1954 was determined as above but NADH. NADPH or NMNH was substituted for the NRH and CB 1954 was used at a fixed concentration of 100 μM. The enzyme concentration was 5 μg/ml. The reduction of CB 1954 was monitored by measuring both the decrease in its corresponding peak area on the HPLC trace and the increase in the area of the peak corresponding to the reduction product 5-(aziridin-1-yl)-4-hydroxylamino-2-nitrobenzamide. The relative rates of reduction were determined at 10% reduction of CB1954 from a graph plotting CB 1954 reduction against time. The time axis was normalised to the equivalent of 10 μg/ml of NQO2.
The activity of various potential co-substrates was determined by HPLC analysis in the presence of CB1954 and NQO2. To determine the kinetic parameters NQO2 (1 μg/ml) was incubated with NRH (5000 μM) and CB1954 at different concentrations (0.1 to 2 mM) in sodium phosphate buffer (10MM, pH 7) at 37° C. At various times, aliquots (10 μl) were injected onto a Partisphere SCX (250×4.5 mm) HPLC column (Whatman Ltd) and eluted isocratically (1.5 ml/min) with 50 mM aqueous sodium phosphate containing 1% methanol. The eluate was continuously monitored for absorption at 320 nm. […] The reduction of CB1954 was monitored by quantifying the increase in the area of the peak corresponding to the reduction product 5-(aziridin-1-yl)-4-hydroxylamino-2-nitrobenzamide. All the assays were initiated by addition of the enzyme and performed in duplicate. The kinetic parameters were calculated by plotting the initial rate of reduction at each concentration of CB1954 against that concentration and fitting the data to the Michaelis-Menton equation using a computer programme (Fig P). Values were confirmed by transforming the data and fitting it to various linear forms of the equation by regression analysis.
The effect of various co-substrates on CB1954 reduction was determined as above but the co-substrate was substituted for the NRH and C1954 was used at a fixed concentration of 100 μM. The enzyme concentration was 1 or 5 μg/ml. The reduction of CB1954 was monitored by measuring both the decrease in its corresponding peak area on the HPLC trace and the increase in the area of the peak corresponding to the reduction product 5-(aziridin-1-yl)-4-hydroxylamino-2-nitrobenzamide. The relative rates of reduction were determined at 10% reduction of CB1954 from a graph plotting CB1954 reduction against time. The time axis was normalised to the equivalent of 10 μg/ml of NQO2. The kinetic parameters of NQO2 for the various co-substrates was determined as for CB1954 except that the initial concentration of CB1954 was constant at 100 μm whilst that of the co-substrate was varied from 0 to 2 mM. The enzyme concentration was 0.5 μg/ml.

[2] = system: non-transfected V79 cells; test: Cytotoxicity of CB 1954 with NRH in non-transfected V79 cells; assay type: cell-based, Chinese hamster; conditions: 100 μM NRH added, 72 hours
Human DT-diaphorase = Human DT-diaphorase (Homo sapiens, UniProt P15559); conditions: with respect to CB 1954; NADH as co-substrate; cited from earlier work
Sequence of Human DT-diaphorase (P15559 whole entry): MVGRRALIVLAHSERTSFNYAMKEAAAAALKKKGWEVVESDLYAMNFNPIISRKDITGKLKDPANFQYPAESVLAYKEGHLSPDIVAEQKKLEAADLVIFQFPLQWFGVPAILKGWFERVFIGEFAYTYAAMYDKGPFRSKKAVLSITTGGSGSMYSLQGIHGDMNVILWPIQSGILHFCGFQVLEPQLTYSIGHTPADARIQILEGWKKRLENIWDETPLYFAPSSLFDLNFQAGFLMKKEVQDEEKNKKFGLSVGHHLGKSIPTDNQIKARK

E. coli nitroreductase = E. coli nitroreductase (Escherichia coli, UniProt P38489); conditions: with respect to CB 1954; NADH as co-substrate; cited from earlier work
Sequence of E. coli nitroreductase (P38489 whole entry): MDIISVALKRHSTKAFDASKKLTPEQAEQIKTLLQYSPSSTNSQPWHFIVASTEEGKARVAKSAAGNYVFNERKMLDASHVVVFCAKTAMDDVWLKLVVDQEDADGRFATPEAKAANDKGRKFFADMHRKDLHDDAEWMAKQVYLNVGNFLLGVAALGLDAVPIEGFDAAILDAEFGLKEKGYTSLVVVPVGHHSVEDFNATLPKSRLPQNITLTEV

Rat DT-diaphorase = biological target: T2, Rat DT-diaphorase (Rattus norvegicus, UniProt P05982); conditions: with respect to CB 1954; NADH as co-substrate; cited from earlier work
T2 sequence (P05982 2-274 limits assumed): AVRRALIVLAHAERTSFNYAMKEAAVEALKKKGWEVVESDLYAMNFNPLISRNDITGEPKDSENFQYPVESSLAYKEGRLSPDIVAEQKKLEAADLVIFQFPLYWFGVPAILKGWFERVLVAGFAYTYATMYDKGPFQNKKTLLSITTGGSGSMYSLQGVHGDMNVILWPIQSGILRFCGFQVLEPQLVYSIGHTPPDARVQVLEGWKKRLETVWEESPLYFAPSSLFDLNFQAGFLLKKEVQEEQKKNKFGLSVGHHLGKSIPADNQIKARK

[3] = system: human T98G gliobastoma cells; test: Cytotoxicity of CB 1954 on T98G glioblastoma cells with NQO2 co-substrates; conditions: no co-substrate
Method: Cells in exponential phase of growth were trypsinised, seeded in 96 well plates at a density of 5×10^4 cells per well (100 μl) and permitted to recover for 24 hours. Then 50 μl of medium was removed and replaced with 50 μl of fresh medium containing 200 μM NRH to give a final concentration of 100 μM. Serial dilutions of CB 1954 (8 of 3.66×) were performed in situ giving final concentrations of 1000–0.46 μM. Cells were then incubated with drug for 72 hours at 37° C. The plates were fixed and stained with sulforhodamine-B; the absorption at 590 nm read and results were expressed as percentage of control growth. The IC50 values were evaluated by interpolation.
The cells were treated as for V79 cells but were treated for 144 hr in presence of CB 1954.

In the case of `NC(=O)C1=CN([C@@H]2O[C@H](CO)[C@@H](O)[C@H]2O)C=CC1` [NRH, dihydronicotinamide riboside], the “increase of the cytotoxicity of CB 1954” value ([1]; V79TM5 and 13 cell lines) is reported as “greater than 100 fold”, the “increase of the cytotoxicity of CB 1954” value ([1]; V79TM13 cells) is reported as “at least 100 fold” and the “RELATIVE RATE OF REDUCTION” value (NQO2; CB 1954 reduction by NQO2, co-substrate initial 500 μM, CB 1954 initial 100 μM) is reported as 70.0. For the same compound, the Km (NQO2; of NQO2 for the co-substrate, CB1954 as electron acceptor (100 μM)) was 28 ± 2 µM, the kcat (NQO2; of NQO2 with the co-substrate, CB1954 as electron acceptor) was 6 s⁻¹ and the “increase of the cytotoxicity of CB 1954” value [2] was less than 3 fold.
For `NC(=O)c1cc(N2CC2)c([N+](=O)[O-])cc1[N+](=O)[O-]` [CB 1954, 5-(aziridin-1-yl)-2,4-dinitrobenzamide], the Km (Human DT-diaphorase) is given as 1400 µM, the kcat (Human DT-diaphorase) is given as 0.0107 s⁻¹ and the kcat (E. coli nitroreductase) is given as 6.0 s⁻¹. The Km (Rat DT-diaphorase) was 826 µM, the kcat (Rat DT-diaphorase) was 0.0683 s⁻¹ and the “toxicity of CB1954 alone” value [3] was “not toxic”.
